From publication PMC9317902, “Multi-Targeting Approach in Glioblastoma Using Computer-Assisted Drug Discovery Tools to Overcome the Blood–Brain Barrier and Target EGFR/PI3Kp110β Signaling” (Cancers, 2022)
Where two headings read alike, the source gives them in different places.

Columns and labels:
[1] = system: U87MG cells; test: MTT cell viability, U87MG; assay type: cell-based; settings: 24 h; for EC50 / cell death: U87MG; for cell death: screening 0.1-100 µM
Description: (§1) To analyze molecules’ cytotoxicity, U87MG and U87MG-wtEGFR cells were seeded into 96-well plates at a density of 2.5 × 10^4 cells/mL, and after 48 h were incubated with 0.1, 1, 10, or 100 µM of each molecule diluted in (non-supplemented) cell medium for 24 h. The half-maximal effective concentration (EC50) of the most cytotoxic compounds was quantified. Dose–response data were also obtained for treatment with triton X-100 (positive control) and DMSO (vehicle; negative control). The cytotoxicity of selected molecules from initial screening was tested in HBMEC at 100 µM for 24 h. HBMEC were seeded at a density of 8 × 10^4 cell/mL in 96-well plates and after 48 h were incubated with the molecules.
(§2) In screening assays, cell viability was evaluated using thiazolyl blue tetrazolium bromide (MTT). Briefly, a culture medium containing 0.5 mg/mL of MTT was added to each well for 90 min at 37 °C. The supernatant was removed and the formed formazan crystals in viable cells were solubilized with 0.04 N HCl in isopropanol solution. The absorbance was recorded using a microplate reader (Zenyth 3100, Anthos Labtec Instruments, Salzburg, Austria) at 595 nm, and values of cell viability were calculated as percentage of negative control.

[2] = system: phospho-EGFR; test: Immunofluorescence of phospho-EGFR in U87MG cells; assay type: cell-based
[3] = system: U87MG-wtEGFR cells; test: MTT cell viability, U87MG-wtEGFR; assay type: cell-based; settings: 24 h; for cell death: screening 0.1-100 µM
Description: as §1, with “The half-maximal effective concentration (EC50) of the most cytotoxic compounds was quantified.” left out
In screening assays, cell viability was evaluated using thiazolyl blue tetrazolium bromide (MTT). Briefly, a culture medium containing 0.5 mg/mL of MTT was added to each well for 90 min at 37 °C. The supernatant was removed and the formed formazan crystals in viable cells were solubilized with 0.04 N HCl in isopropanol solution.

[4] = system: HBMEC; test: HBMEC integrity and morphology (β-catenin, F-actin immunofluorescence); assay type: cell-based, human
Text: (§3) HBMEC in coverslips were stained for: the junctional protein β-catenin (1:100, Thermo Fisher Scientific, Waltham, MA, USA, #71-2700), the cytoskeleton protein F-actin (1:1000, Phalloidin dye, Abcam, Cambridge, UK, #ab17675), and the efflux transporter P-gp (1:50, Santa Cruz Biotechnology, Dallas, TX, USA, #sc-390883). HBMEC seeded on polyester inserts for transport assays were also stained for the junctional protein zonula occludens-1 (ZO-1, 1:200, Thermo Fisher Scientific, Waltham, MA, USA, #40-2200) and the cytoskeleton protein vimentin (1:100, Thermo Fisher Scientific, Waltham, MA, USA, #MA3745).
(§4) Incubations with primary antibodies occurred overnight at 4 °C. Incubation with the secondary antibodies Alexa Fluor 555 (1:500, Thermo Fisher Scientific, Waltham, MA, USA, #A21428) or Alexa Fluor 488 (1:500, Thermo Fisher Scientific, Waltham, MA, USA, #A11001) lasted for 1 h at room temperature. Nuclei were counterstained with Hoechst 33342 dye (1:1000, Thermo Fisher Scientific, Waltham, MA, USA, #33342) for 10 min. Before mounting with DPX (Merck Millipore, Burlington, MA, USA), cells were dehydrated with methanol. Negative controls were performed.
(§5) All acquired images were treated in ImageJ (NIH, Bethesda, MD, USA). Assessment of nuclear morphology following Hoechst staining was evaluated. For fluorescence intensity measures, the regions of interest were selected in Image J, and corresponding integrated densities were obtained. The representative 3D plots for BBB integrity were obtained by merged pixel intensity using the surface plot tool of Image J. For F-actin stress fibers analysis, the plot profile tool of Image J was used considering each defined cell-ferret diameter.
For analysis of β-catenin internalization and HBMEC morphological changes, Icy software was used. At least 5 cells per field were delineated and the conveyed values of membrane/interior pixels and roundness (area/perimeter^2) were exported and analyzed. Taking advantage of membrane staining (β-catenin), the BBB’s integrity was also analyzed by quantifying the total area of intercellular gaps in the HBMEC monolayer.

[5] = system: HBMEC; test: MTT cell viability, HBMEC; assay type: cell-based, human; settings: 24 h, 100 µM
Description: as §1, §2

[6] = system: P-gp; test: P-gp expression in HBMEC (immunofluorescence); assay type: cell-based, human; settings: U87MG EC50, 9 h
Text: as §3, §4, §5

[7] = system: U87MG cells; test: Apoptotic cells by nuclear morphology (Hoechst) in U87MG; assay type: cell-based; settings: for apoptotic cells: at EC50, 9 h
[8] = system: U87MG cells; test: Abluminal conditioned medium of HBMEC on U87MG; assay type: cell-based; settings: 24 h, MTT
Description: To evaluate disruptive effects in HBMEC monolayer when co-cultured, a transport assay using HBMEC monoculture was conducted. After 2 h of molecules incubation, the abluminal conditioned media were collected and used to supply U87MG or U87MG-wtEGFR cells for 24 h, which grew to confluence for 3 days. HBMEC were also tested for barrier integrity, and MTT assays were performed at the end of incubation.

[9] = system: phospho-AKT; test: Immunofluorescence of phospho-AKT in U87MG cells; assay type: cell-based; settings: for inhibition of phospho-AKT expression: at EC50, after 6 h exposure
[10] = system: U87MG cells; test: BBB-GB co-culture model HBMEC:U87MG; assay type: cell-based
Description: To assess molecule cytotoxicity in GB cells after crossing the HBMEC monolayer, a co-culture BBB-GB model was used. HBMEC were seeded in the Transwell apparatus as described above. After 5 days, U87MG or U87MG-wtEGFR cells were seeded (1.2 × 10^5 cell/mL) in the lower chamber. After 3 days of co-culture, upper chamber content was replaced with fresh medium (control) or medium containing each molecule at respective EC50. After 2 h, inserts were removed and tested for barrier integrity by TEER readings and immunofluorescence analysis, whereas GB cells were maintained in culture for 24 h to further assess cell viability by MTT assay.

[11] = system: HBMEC monolayer; test: Transwell in vitro BBB model: transport (UPLC-MS/MS) and barrier integrity; assay type: in vitro ADME, human
Description: To evaluate molecules’ BBB transport, a well-validated two-chamber BBB model, relying on the use of a microporous semipermeable membrane (Transwell insert) that separates the upper (luminal: “blood side”) and the lower (abluminal: “brain side”) chambers, was used as usual in our team. Briefly, HBMEC were seeded on polyester inserts (0.4 μm, Corning Costar Corp., New York, NY, USA) at a density of 8 × 10^4 cell/insert and treated after 8 days in culture. Inserts were coated with rat-tail collagen-I (BD Biosciences, Erembodegem, Aalst, Belgium) before seeding. Transport assays were conducted in Hank’s Balanced Salt Solution (HBSS, Gibco, Waltham, MA, USA) with calcium and magnesium, supplemented with 0.1% FBS.
Samples from upper and lower chambers were deproteinized using acetonitrile (ACN) (1:3) in ice-cold conditions, centrifuged at 15,300× g for 5 min at 4 °C and the respective supernatants were frozen until subsequent analysis.
The identification and quantification of molecules of interest were achieved by ultra-performance liquid chromatography–tandem mass spectrometry (UPLC-MS/MS) analysis using a triple quadrupole and Masslynx 4.1 software (Acquity TQ Waters). The separation of analytes was performed using a reversed-phase column Purospher STAR, RP-18 endcapped, 2 µm; Hibar HR 50-2.1 (Merck, Rahway, NJ, USA) at 35 °C, and a linear gradient (0.1% formic acid (A): ACN with 0.1% formic acid (B)) at a flow rate of 0.30 mL/min. The detection of analytes was based on electrospray ionization in the positive mode (ESI+) and acquisition in multiple reaction monitoring mode (MRM) at the following settings: ESI capillary voltage 3.0 kV, cone voltage 30 V, extractor voltage 1 V, RF lens voltage 0.1 V, desolvation gas flow 750 L/h at 350 °C, cone gas flow 50 L/h at 120 °C. Calibration curves were based on external standards using at least 8-points within the intended range, injected as duplicates. Analytes were quantified with a maximum deviation of 15% between the MRM1/MRM2 ratio. Each sample was injected in triplicate. Endothelial transport was calculated based on the ratio of lower compartment concentration and the sum of upper and lower compartments concentrations.
HBMEC monolayer integrity was ensured during BBB transport assays by TEER measurements and sodium-fluorescein paracellular permeability assessment, as previously described. TEER readings were performed using an EndOhm^TM chamber coupled to an EVOMX resistance meter (World Precision Instruments, Inc., Sarasota, FL, USA) and sodium fluorescein levels were measured using a Hitachi F-2000 fluorescence spectrophotometer.

[12] = several cell-based studies; cited from earlier work
[13] = system: patient-derived cell lines; parameters: method as in PMID 34794398; settings: 72 h, read-out: median IC50; cited from earlier work
[14] = system: U87 cells; parameters: method as in PMID 34794398; settings: depending on the incubation time; cited from earlier work
[15] = U87MG-wtEGFR, MTT, read-out: EC50

Brc1ccc(Nc2ncnc3ccccc23)cc1 [Mol 17]
EC50 ([1]; Homo sapiens, U-87 MG): 129 ± 14.5 µM
cell death [1]: ≥ 50%
phospho-EGFR expression, of that observed in control ([2]; at EC50, 9 h): about 30%
EC50 [3, 15]: 50.4 ± 5.21 µM
cell death ([3]; U87MG-wtEGFR, MTT): ≥ 50%
F-actin stress fibers per cell ([4]; human, 9 h): highly increased the number of stress fibers/cell
HBMEC shape (roundness) ([4]; human, 9 h): increased cell roundness
disrupted barrier integrity (endothelial gaps), of control ([4]; human, 9 h): 78%
β-catenin expression and location ([4]; human, 9 h): irregular and discontinuous appearance
impairment of HBMEC cell viability ([5]; human): about 65%
P-gp expression (mean intensity) in HBMEC [6]: significant increase in P-gp mean intensity
apoptotic cells [7]: ~40%

CCCCN1CCCc2cc(CN(CCN3CCOCC3)C(=S)Nc3cc(F)cc(F)c3)ccc21 [Mol 19]
U87MG cell viability with basolateral conditioned medium of HBMEC [8]: none of the molecules induced a statistically significant difference
EC50 ([1]; Homo sapiens, U-87 MG): 104 ± 14.9 µM
cell death [1]: ≥ 50%
EC50 [3, 15]: 27.6 ± 5.91 µM
cell death ([3]; U87MG-wtEGFR, MTT): ≥ 50%
HBMEC shape (roundness) [4]: no significant changes in HBMEC shape
β-catenin expression and location [4]: absence of changes in β-catenin expression and location
phosphorylated AKT expression compared with control ([9]; at EC50, 1-9 h): decreased expression
TEER of HBMEC ([10]; 2 h at EC50, mono- or co-culture system): TEER readings were not decreased
U87MG cell viability in co-culture system ([10]; added to upper chamber at EC50 for 2 h, MTT after 24 h): impaired
HBMEC permeability to sodium fluorescein (Pe) ([11]; U87MG EC50): no statistical differences between treated cells and control
TEER of HBMEC monolayer ([11]; U87MG EC50, 30 min): None of the molecules markedly changed the TEER
endothelial transport efficiency, 30 vs. 120 min ([11]; UPLC-MS/MS): transported across the HBMEC monolayer in a time-dependent manner
transport across the BBB endothelium ([11]; UPLC-MS/MS, 30 and 120 min): could be transported across the BBB endothelium
P-gp expression (mean intensity) in HBMEC [6]: No significant changes in P-gp expression
apoptotic cells [7]: about 35%

C=CC(=O)Nc1cc2c(Nc3ccc(F)c(Cl)c3)ncnc2cc1OCCCN1CCOCC1 [Mol 25, canertinib, reference compound]
viability at 100 µM ([1]; Homo sapiens, U-87 MG, 100 µM, GB cell line not given, read-out: viable cells): ~0%
EC50 ([1]; Homo sapiens, U-87 MG): 16.3 ± 2.26 µM
cell death [1]: ≥ 50%
reduction of mean intensity of phosphorylated EGFR ([2]; at EC50, 9 h): 92.6%
inhibition of phospho-EGFR expression ([2]; at EC50, after 6 h exposure): > 50%
EC50 [3]: 11.3 ± 2.15 µM
cell death ([3]; U87MG-wtEGFR, MTT): ≥ 50%
HBMEC detachment ([4]; human, 9 h): 100%
inhibition of phospho-AKT expression [9]: > 50%
impairment of HBMEC cell viability ([5]; human): ~100%
apoptotic cells [7]: ~85%

C=CC(=O)Nc1ccc2ncnc(Nc3cccc(Br)c3)c2c1 [Mol 27]
EC50 ([1]; Homo sapiens, U-87 MG): 22.7 ± 2.22 µM
cell death [1]: ≥ 50%
F-actin stress fibers per cell ([4]; HBMEC, U87MG EC50, 9 h): highly increased the number of stress fibers/cell
HBMEC shape (roundness) ([4]; HBMEC, U87MG EC50, 9 h): increased cell roundness
β-catenin expression and location ([4]; HBMEC, U87MG EC50, 9 h): irregular and discontinuous appearance
disrupted barrier integrity (endothelial gaps), of control ([4]; HBMEC, U87MG EC50, 9 h, β-catenin staining): 82%
inhibition of phospho-AKT expression [9]: > 50%
impairment of HBMEC cell viability ([5]; MTT): ~58%
P-gp expression (mean intensity) in HBMEC [6]: significant increase in P-gp mean intensity
apoptotic cell death ([7]; at EC50, 6 h): 12.8%
apoptotic cells [7]: 31.9%

Cn1nnc2c(C(N)=O)ncn2c1=O [TMZ, temozolomide]
doses at which more than 50% cytotoxicity was seen [12]: up to 4000 µM
IC50 [13]: 800 µM
IC50 [14]: 124 to 230 µM
